The text below walks through data of patent US20260184710A1, “CASITAS B-LINEAGE LYMPHOMA PROTOONCOGENE B (CBL-B) DEGRADING COMPOUNDS AND ASSOCIATED METHODS OF USE” (Arvinas Operations, Inc., priority 2022, published 2026).

The test addresses T1, Cbl-b (Homo sapiens, UniProt Q13191).
T1 construct: Cbl-b-HiBit KI Jurkat Cells were purchased from Promega; host or cells: Cbl-b-HiBiT knock-in Jurkat cells
Briefly: Cbl-b Degradation Method B (Nano-Glo HiBiT lytic detection). Type of test: cell-based. As to conditions: Cbl-b-HiBit KI Jurkat Cells, incubated at least 6-24 hours; for DC50: half maximal degradation, read-out: Cbl-b Degredation Method B IC50; for Dmax: maximum degradation observed, read-out: Cbl-b Degredation Method B Dmax (%). Summed up: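 An 11-point, 3-fold compound dilution was applied for 6-24 hours to Jurkat cells carrying HiBiT-tagged endogenous Cbl-b. Lytic HiBiT luminescence quantified residual protein. Outputs are DC50 and Dmax relative to DMSO control.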
(In general: With HiBiT, luminescence reflects the tagged protein that the partner subunit can reach.)

In general, Dmax refers to the greatest extent of degradation seen.

Structures are written as SMILES.

T1 sequence (Q13191 whole entry): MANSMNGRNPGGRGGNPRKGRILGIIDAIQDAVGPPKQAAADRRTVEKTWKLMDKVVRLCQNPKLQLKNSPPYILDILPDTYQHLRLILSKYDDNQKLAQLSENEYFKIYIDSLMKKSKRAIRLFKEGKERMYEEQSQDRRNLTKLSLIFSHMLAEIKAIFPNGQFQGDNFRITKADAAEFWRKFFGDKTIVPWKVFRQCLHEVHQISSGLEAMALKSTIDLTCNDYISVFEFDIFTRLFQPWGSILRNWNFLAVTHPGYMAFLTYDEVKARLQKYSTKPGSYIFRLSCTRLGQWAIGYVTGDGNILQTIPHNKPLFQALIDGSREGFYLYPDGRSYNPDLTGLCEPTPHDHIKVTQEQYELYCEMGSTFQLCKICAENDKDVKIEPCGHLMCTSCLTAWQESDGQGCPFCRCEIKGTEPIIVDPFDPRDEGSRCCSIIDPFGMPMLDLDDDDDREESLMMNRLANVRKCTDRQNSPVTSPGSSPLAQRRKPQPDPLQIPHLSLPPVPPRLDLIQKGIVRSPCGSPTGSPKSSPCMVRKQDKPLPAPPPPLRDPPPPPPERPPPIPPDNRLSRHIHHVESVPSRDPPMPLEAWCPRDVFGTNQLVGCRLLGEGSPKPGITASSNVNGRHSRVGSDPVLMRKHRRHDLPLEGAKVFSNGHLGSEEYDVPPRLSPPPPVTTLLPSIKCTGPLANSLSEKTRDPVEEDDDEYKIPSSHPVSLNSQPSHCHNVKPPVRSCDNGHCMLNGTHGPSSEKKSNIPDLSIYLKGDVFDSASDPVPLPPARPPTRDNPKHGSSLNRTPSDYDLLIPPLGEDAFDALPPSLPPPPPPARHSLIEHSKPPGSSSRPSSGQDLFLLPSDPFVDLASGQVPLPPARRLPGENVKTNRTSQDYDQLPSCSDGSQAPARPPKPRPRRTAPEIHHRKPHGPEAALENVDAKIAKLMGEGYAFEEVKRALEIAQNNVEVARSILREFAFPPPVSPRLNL

For the compound `CC1CN(C[C@H]2CC[C@H](OC3CCN(c4ccc5c(c4)n(C(C)C)c(=O)n5C4CCC(=O)NC4=O)CC3)CC2)CCN1Cc1cc2c(c(C(F)(F)F)c1)CN(c1cccc(C3(Cc4nncn4C)CC(C#N)C3)c1)C2=O` (some centres unmarked) [Example 245, (1r**,3r**)-3-(3-{6-[(2-methyl-4-{[(1r*,4r*)-4-({1-[1-(2,6-dioxopiperidin-3-yl)-2-oxo-3-(propan-2-yl)-2,3-dihydro-1H-1,3-benzodiazol-5-yl]piperidin-4-yl}oxy)cyclohexyl]methyl}piperazin-1-yl)methyl]-1-oxo-4-(trifluoromethyl)-2,3-dihydro-1H-isoindol-2-yl}phenyl)-3-[(4-methyl-4H-1,2,4-triazol-3-yl)methyl]cyclobutane-1-carbonitrile], the DC50 was below 5 nM and the Dmax is above 70%. For the compound `CC1c2nc(N3CCC(O[C@H]4CC[C@@H](CN5[C@@H](C)CN(Cc6cc7c(c(C(F)(F)F)c6)CN(c6cccc(C8(Cc9nncn9C)COC8)c6)C7=O)C[C@@H]5C)CC4)CC3)ccc2C(=O)N1C1CCC(=O)NC1=O` (stereo partly drawn) [Example 249, 3-[7-methyl-5-oxo-2-(4-{[(1r*,4r*)-4-{[(2S,6S)-2,6-dimethyl-4-{[2-(3-{3-[(4-methyl-4H-1,2,4-triazol-3-yl)methyl]oxetan-3-yl}phenyl)-3-oxo-7-(trifluoromethyl)-2,3-dihydro-1H-isoindol-5-yl]methyl}piperazin-1-yl]methyl}cyclohexyl]oxy}piperidin-1-yl)-5H,6H,7H-pyrrolo[3,4-b]pyridin-6-yl]piperidine-2,6-dione], the DC50 was below 5 nM and the Dmax is above 70%. For `CC1c2nc(N3CCC(O[C@H]4CC[C@H](CN5[C@H](C)CN(Cc6cc7c(c(C(F)(F)F)c6)CN(c6cccc(C8(Cc9nncn9C)COC8)c6)C7=O)C[C@H]5C)CC4)CC3)ccc2C(=O)N1C1CCC(=O)NC1=O` (stereo partly drawn) [Example 250, 3-[7-methyl-5-oxo-2-(4-{[(1r*,4r*)-4-{[(2R,6R)-2,6-dimethyl-4-{[2-(3-{3-[(4-methyl-4H-1,2,4-triazol-3-yl)methyl]oxetan-3-yl}phenyl)-3-oxo-7-(trifluoromethyl)-2,3-dihydro-1H-isoindol-5-yl]methyl}piperazin-1-yl]methyl}cyclohexyl]oxy}piperidin-1-yl)-5H,6H,7H-pyrrolo[3,4-b]pyridin-6-yl]piperidine-2,6-dione], the DC50 was below 5 nM and the Dmax lay within 35 to 70%. For the compound `Cc1cc(N2CCC(O[C@H]3CC[C@H](CN4CCN(Cc5cc6c(c(C(F)(F)F)c5)CN(c5cccc(C7(Cc8nncn8C)CC(C#N)C7)c5)C6=O)C(C)(C)C4)CC3)CC2)c(F)c2c1C(=O)N(C1CCC(=O)NC1=O)C2` (some centres unmarked) [Example 251, (1r**,3r**)-3-(3-{6-[(2,2-dimethyl-4-{[(1r*,4r*)-4-({1-[2-(2,6-dioxopiperidin-3-yl)-4-fluoro-7-methyl-1-oxo-2,3-dihydro-1H-isoindol-5-yl]piperidin-4-yl}oxy)cyclohexyl]methyl}piperazin-1-yl)methyl]-1-oxo-4-(trifluoromethyl)-2,3-dihydro-1H-isoindol-2-yl}phenyl)-3-[(4-methyl-4H-1,2,4-triazol-3-yl)methyl]cyclobutane-1-carbonitrile], the DC50 lay within 5 to 50 nM and the maximal degradation (Dmax) is above 70%. On the same counts, the results for `CC1c2nc(N3CCC(O[C@H]4CC[C@H](CN5CCN(Cc6cc(C(F)(F)F)c7cn(-c8cccc(C9(Cc%10nncn%10C)CC(C#N)C9)c8)nc7c6)C(C)(C)C5)CC4)CC3)ccc2C(=O)N1C1CCC(=O)NC1=O` (some centres unmarked) [Example 252, (1r**,3r**)-3-(3-{6-[(2,2-dimethyl-4-{[(1r*,4r*)-4-({1-[6-(2,6-dioxopiperidin-3-yl)-7-methyl-5-oxo-5H,6H,7H-pyrrolo[3,4-b]pyridin-2-yl]piperidin-4-yl}oxy)cyclohexyl]methyl}piperazin-1-yl)methyl]-4-(trifluoromethyl)-2H-indazol-2-yl}phenyl)-3-[(4-methyl-4H-1,2,4-triazol-3-yl)methyl]cyclobutane-1-carbonitrile] are 5 to 50 nM and 35 to 70%.

As for `Cn1cnnc1CC1(c2cccc(N3Cc4c(cc(CN5CCN(C[C@H]6CC[C@H](OC7CCN(c8ccc9c(c8F)CN(C8CCC(=O)NC8=O)C9=O)CC7)CC6)CC5(C)C)cc4C(F)(F)F)C3=O)c2)CC(C#N)C1` (some centres unmarked) [Example 254, (1r**,3r**)-3-(3-{6-[(2,2-dimethyl-4-{[(1r*,4r*)-4-({1-[2-(2,6-dioxopiperidin-3-yl)-4-fluoro-1-oxo-2,3-dihydro-1H-isoindol-5-yl]piperidin-4-yl}oxy)cyclohexyl]methyl}piperazin-1-yl)methyl]-1-oxo-4-(trifluoromethyl)-2,3-dihydro-1H-isoindol-2-yl}phenyl)-3-[(4-methyl-4H-1,2,4-triazol-3-yl)methyl]cyclobutane-1-carbonitrile], the DC50 was in the range of 5 to 50 nM and the Dmax was above 70%.

Turning to `Cn1cnnc1CC1(c2cccc(-n3cc4c(C(F)(F)F)cc(CN5CCC[C@H](CN6CCC(CN7CCN(c8ccc9c(c8F)CN(C8CCC(=O)NC8=O)C9=O)CC7)CC6)C5)cc4n3)c2)COC1` (stereo partly drawn) [Example 256, 3-(4-fluoro-5-{4-[(1-{[(3R)-1-{[2-(3-{3-[(4-methyl-4H-1,2,4-triazol-3-yl)methyl]oxetan-3-yl}phenyl)-4-(trifluoromethyl)-2H-indazol-6-yl]methyl}piperidin-3-yl]methyl}piperidin-4-yl)methyl]piperazin-1-yl}-1-oxo-2,3-dihydro-1H-isoindol-2-yl)piperidine-2,6-dione], the DC50 was above 500 nM. In the case of `Cn1cnnc1CC1(c2cccc(-n3cc4c(C(F)(F)F)cc(CN5CCC[C@H](CN6CCC[C@@H](CN7CCN(c8ccc9c(c8F)CN(C8CCC(=O)NC8=O)C9=O)CC7)C6)C5)cc4n3)c2)COC1` (stereo partly drawn) [Example 257, 3-[4-fluoro-5-(4-{[(3R)-1-{[(3R)-1-{[2-(3-{3-[(4-methyl-4H-1,2,4-triazol-3-yl)methyl]oxetan-3-yl}phenyl)-4-(trifluoromethyl)-2H-indazol-6-yl]methyl}piperidin-3-yl]methyl}piperidin-3-yl]methyl}piperazin-1-yl)-1-oxo-2,3-dihydro-1H-isoindol-2-yl]piperidine-2,6-dione], the DC50 was above 500 nM. With `Cn1cnnc1CC1(c2cccc(-n3cc4c(C(F)(F)F)cc(CN5CCC[C@H](CN6CCC[C@H](OC7CCN(c8ccc9c(c8F)CN(C8CCC(=O)NC8=O)C9=O)CC7)C6)C5)cc4n3)c2)COC1` (stereo partly drawn) [Example 258, 3-[4-fluoro-5-(4-{[(3S)-1-{[(3S)-1-{[2-(3-{3-[(4-methyl-4H-1,2,4-triazol-3-yl)methyl]oxetan-3-yl}phenyl)-4-(trifluoromethyl)-2H-indazol-6-yl]methyl}piperidin-3-yl]methyl}piperidin-3-yl]oxy}piperidin-1-yl)-1-oxo-2,3-dihydro-1H-isoindol-2-yl]piperidine-2,6-dione], the DC50 was above 500 nM. For the compound `Cn1cnnc1CC1(c2cccc(-n3cc4c(C(F)(F)F)cc(CN5CCC[C@H](CN6CCC(OC7CCN(c8ccc9c(c8F)CN(C8CCC(=O)NC8=O)C9=O)CC7)CC6)C5)cc4n3)c2)COC1` (stereo partly drawn) [Example 259, 3-(4-fluoro-5-{4-[(1-{[(3R)-1-{[2-(3-{3-[(4-methyl-4H-1,2,4-triazol-3-yl)methyl]oxetan-3-yl}phenyl)-4-(trifluoromethyl)-2H-indazol-6-yl]methyl}piperidin-3-yl]methyl}piperidin-4-yl)oxy]piperidin-1-yl}-1-oxo-2,3-dihydro-1H-isoindol-2-yl)piperidine-2,6-dione], the DC50 was above 500 nM. Turning to `Cn1cnnc1CC1(c2cccc(-n3cc4ccc(N5CC6(CCN(CC7CCN(c8ccc9c(c8Cl)CN(C8CCC(=O)NC8=O)C9=O)CC7)CC6)C5)cc4n3)c2)COC1` (centres unmarked) [Example 260, 3-{4-chloro-5-[4-({2-[2-(3-{3-[(4-methyl-4H-1,2,4-triazol-3-yl)methyl]oxetan-3-yl}phenyl)-2H-indazol-6-yl]-2,7-diazaspiro[3.5]nonan-7-yl}methyl)piperidin-1-yl]-1-oxo-2,3-dihydro-1H-isoindol-2-yl}piperidine-2,6-dione], the DC50 was above 500 nM. For `Cc1cc(N2CCC(CN3CCC4(CC3)CN(c3ccc5cn(-c6cccc(C7(Cc8nncn8C)COC7)c6)nc5c3)C4)CC2)c(F)c2c1C(=O)N(C1CCC(=O)NC1=O)C2` (centres unmarked) [Example 261, 3-{4-fluoro-7-methyl-5-[4-({2-[2-(3-{3-[(4-methyl-4H-1,2,4-triazol-3-yl)methyl]oxetan-3-yl}phenyl)-2H-indazol-6-yl]-2,7-diazaspiro[3.5]nonan-7-yl}methyl)piperidin-1-yl]-1-oxo-2,3-dihydro-1H-isoindol-2-yl}piperidine-2,6-dione], the DC50 was above 500 nM. As to `Cn1cnnc1C[C@]1(c2cccc(-n3cc4c(C(F)(F)F)cc(N5CC6(CCN(CC7CCN(c8ccc9c(c8Cl)CN(C8CCC(=O)NC8=O)C9=O)CC7)CC6)C5)cc4n3)c2)C[C@H](C#N)C1` (some centres unmarked) [Example 262, (1r,3r)-3-(3-{6-[7-({1-[4-chloro-2-(2,6-dioxopiperidin-3-yl)-1-oxo-2,3-dihydro-1H-isoindol-5-yl]piperidin-4-yl}methyl)-2,7-diazaspiro[3.5]nonan-2-yl]-4-(trifluoromethyl)-2H-indazol-2-yl}phenyl)-3-[(4-methyl-4H-1,2,4-triazol-3-yl)methyl]cyclobutane-1-carbonitrile], the DC50 was in the range of 5 to 50 nM and the Dmax was below 35%.
